Drawing on US10538485B2, “Compounds for use as therapeutic agents affecting P53 expression and/or activity” (ABIVAX, priority 2011, dated 2020), this text covers IC (0.5-fold effect of 10 uM Y-27632) for 13 compounds.

Molecules are shown by their SMILES.

This assay concerns MDA-MB231-luc-D3H2LN cells. Nature of the assay: Invasion of MDA-MB231-D3H2LN cells into collagen. In kind it is cell-based. To be noted: MDA-MB-231, anti-invasive effect in MDA-MB231 breast cancer cells, concentration giving 0.5 fold the effect of 10 μM Y-27632 ref. compound, read-out: 0.5 fold effect compared to 10 μM Y-27632. The source says:
13.4 Effect of Drug Compounds on Invasion of MDA-MB231-D3H2LN Cells into Collagen
A key step in the generation of tumor metastasis is the invasion of tumor cells into the extracellular matrix, a major component of which is collagen. Therefore, the invasion of tumor cells into collagen in vitro may be indicative of the generation of metastasis in vivo. E. g., MDA-MB231-luc-D3H2LN […] breast cancer cells display indeed both higher invasion into collagen in vitro and a higher metastatic potential in vivo as compared to MDA-MB231 cells (from which they were derived). Using these MDA-MB231-luc-D3H2LN cells as a model, the aim of the experiment described here is to identify drug compounds that inhibit the invasion of tumor cells into collagen in vitro, therefore potentially inhibiting also the generation of tumor metastasis in vivo.
Step 1: Preparation of cells at the bottom of a collagen gel: Cells are suspended in a liquid collagen solution (4° C.), distributed into BSA-coated wells, and then collected at the bottom of the wells by centrifugation. The collagen is then solidified by incubation at 37° C. The BSA coating improves the adhesion of the collagen gel.
Step 2: Pre-treatment with the compounds to be tested: Concentrated drug solutions are then added on top of the collagen, and cells are pre-incubated for 24 h with the drugs at low serum conditions (0.025% FBS).
Step 3: Stimulation of invasion: Medium with 5% FBS is then added in order to stimulate invasion of the cells into the collagen gel.
Step 4: Fixation and staining: Following another 24 h incubation, cells are fixed and nuclei are stained.
Step 5: Analysis: Finally, plates are analyzed using an automated microscope. Fluorescent beads that have been included into the BSA coating serve to detect the bottom of the wells. Pictures of the stained nuclei are taken at the same level (0 μm) as well as 25 μm and 50 μm above.
Invasion assay: Negative control: No drug (just DMSO at equivalent concentration). Positive control: 10 μM Y-27632. To avoid edge effects, only the 60 central wells B2-G11 are used; lines A and H as well as columns 1 and 12 remain free. Each drug is tested at least in triplicate. The positive and negative controls should be tested in double triplicates at different positions on each plate. Typical plate map (−=negative control, +=positive control, 1-16=16 different drug compounds):
for each well, calculate the mean invasion distance of the counted cells: (25 μm×number of cells at 25 μm+50 μm×number cells at 50 μm)/sum of cells at 0, 25 and 50 μm
for all four parameters (number of cells at 0 μm, number of cells at 25 μm, number of cells at 50 μm, mean invasion distance of the counted cells), calculate means, SD and CV of the replicates (n=6 for the controls; n=3 for the samples)
invalidate any replicate with a CV≥50% (compound to be re-tested, or assay to be repeated if CV≥50% for the untreated negative control or the compound Y-27632-treated positive control). Y27632 is a selective inhibitor of the Rho-associated protein kinase p160ROCK of the following formula
validate the assay only if the mean invasion distance of the cells treated with 10 μM Y-27632 (positive control) is decreased by ≥40% as compared to the untreated negative control
Anti-invasive effect in MDA-MB231 breast cancer cells: 0.5 fold effect compared to 10 μM Y-27632 ref. compound.

In the case of `CCN(CC)CCCNC(=O)c1ccc(Nc2cccc(/C=C/c3ccncc3)c2)c(C)c1` [Compound 6], the IC (0.5-fold effect of 10 uM Y-27632) was found to be 0.7 ± 0.1 µM.

For `NC(=O)c1cccc(Nc2cccc(/C=C/c3ccncc3)c2)c1` [Compound 9, 3-[3-(2-pyridin-4-ylvinyl)phenylamino]benzamide], the IC (0.5-fold effect of 10 uM Y-27632) stood at 1.1 ± 0.4 µM.

As to `O=S(=O)(NCCCN1CCOCC1)c1cccc(Nc2cccc(/C=C/c3ccncc3)c2)c1` [Compound 16], the IC (0.5-fold effect of 10 uM Y-27632) was 0.75 ± 0.19 µM.

For the compound `O=S(=O)(NCCCN1CCCCC1)c1cccc(Nc2cccc(/C=C/c3ccncc3)c2)c1` [Compound 17], the IC (0.5-fold effect of 10 uM Y-27632) was determined as 0.83 ± 0.09 µM.

In the case of `CCN(CC)CCCNS(=O)(=O)c1cccc(Nc2cccc(/C=C/c3ccncc3)c2)c1` [Compound 18, N-(3-diethylaminopropyl)-3-[3-(2-pyridin-4-ylvinyl)phenylamino]benzenesulfonamide], the IC (0.5-fold effect of 10 uM Y-27632) was found to be 0.55 ± 0.05 µM.

For the compound `O=C(NCCCN1CCCCC1)c1cccc(Nc2cccc(/C=C/c3ccncc3)c2)c1` [Compound 19], the IC (0.5-fold effect of 10 uM Y-27632) stood at 0.25 ± 0.05 µM.

`CN1CCN(CCCNC(=O)c2cccc(Nc3cccc(/C=C/c4ccncc4)c3)c2)CC1` [Compound 21, (E)-[3-(4-methyl-piperazinyl)-propyl]-3-[3-(2-pyridin-4-ylvinyl)-phenylamino]-benzamide]: the IC (0.5-fold effect of 10 uM Y-27632) came out at 0.17 ± 0.04 µM.

Turning to `O=C(NCCCN1CCCC1)c1cccc(Nc2cccc(/C=C/c3ccncc3)c2)c1` [Compound 22], the IC (0.5-fold effect of 10 uM Y-27632) turned out to be 0.3 ± 0.05 µM.

On to `O=S(=O)(NCCN1CCCCC1)c1cccc(Nc2cccc(/C=C/c3ccncc3)c2)c1` [Compound 24], for which the IC (0.5-fold effect of 10 uM Y-27632) is 0.64 ± 0.2 µM.

With `O=S(=O)(NCCN1CCCC1)c1cccc(Nc2cccc(/C=C/c3ccncc3)c2)c1` [Compound 25], the IC (0.5-fold effect of 10 uM Y-27632) is 0.5 ± 0.21 µM.

Turning to `CCN(CC)CCCNC(=O)c1ccccc1Nc1cccc(OC(F)(F)F)c1` [Compound 49], the IC (0.5-fold effect of 10 uM Y-27632) amounted to 0.13 ± 0.3 µM.

For `CCN(CC)CCCNC(=O)c1ccccc1Nc1ccc(OCc2ccccc2)cc1` [Compound 50], the IC (0.5-fold effect of 10 uM Y-27632) is 1 µM.

Take `CCN(CC)CCCNC(=O)c1ccccc1Nc1cccc(/C=C/c2ccncc2)c1` [Compound 129]: the IC (0.5-fold effect of 10 uM Y-27632) was 0.2 µM.
